The test system of one assay is MM.1S (MM1S). Briefly: CCK-8 tumor cell proliferation IC50, MM.1S. The following applies: MM.1S cells, compounds designed based on the IRAK4 inhibitors, read-out: Inhibitory activity (IC50, nM) on tumor cell proliferation, MM.1S. The protocol:
(§1) The tumor cells used herein were cultured in a cell culture medium listed in table A1 at 37° C. in an incubator with 5% CO2. Prior to experimentation, all cell lines used were correctly identified by STR profiling, and tested negative for mycoplasma contamination using a mycoplasma detection kit through routine screenings.
(§2) IC50 values of the compounds of the present disclosure (including the compounds in Table 1, and compounds of examples) were measured using the Meilun Cell Counting Kit-8 kit from Dalian Meilun Biotech Co., Ltd. Assay details are as follows: tumor cells were seeded in a 96-well plate at a density listed in Table A2. After 24 h, 100 μL of the inoculated cells were treated with 0.5 μL of the compounds of the present disclosure (including the compounds in Tables 1 and 2, and compounds of examples) at 10 different successively decreasing concentrations (starting at the highest concentration of 1 μM; 5-fold serial dilutions). After the cells were treated with the compounds of the present disclosure for a period of time, the cell viability detection reagent was added to the culture medium for cell viability assessment according to the instructions provided with the CCK-8 kit. […] The growth inhibition of the compounds of the present disclosure on cells was plotted by Prism Graphpad software, and the IC50 values of the compounds of the present disclosure were calculated therefrom.

The test system of assay [1] is MGC-803 (MGC80-3, MGC803). Briefly: CCK-8 tumor cell proliferation IC50, MGC-803. More on the design: species or system human. The following applies: MGC803 cells, compounds designed based on the IRAK4 inhibitors, read-out: Inhibitory activity (IC50, nM) on tumor cell proliferation, MGC803. As for the experimental part: as §1, §2
A further assay deals with H1299. Briefly: CCK-8 tumor cell proliferation IC50, H1299. Also on record: species or system human. The following applies: compounds designed based on the IRAK4 inhibitors, read-out: Inhibitory activity (IC50, nM) on tumor cell proliferation, H1299. As for the experimental part: as §1, §2
The subject of a further assay is NCI-H1975 (H1975). The assay can be described thus: CCK-8 tumor cell proliferation IC50, NCI-H1975. The following applies: Homo sapiens, Table B3, designed based on the EGFR inhibitors, 96 hours, read-out: Inhibitory activity (IC50, nM) on tumor cell proliferation: H1975. As for the experimental part:
as §1
as §2, with “dilutions).” for “dilutions). After the cells were treated with the compounds of the present disclosure for a period of time, the cell viability detection reagent was added to the culture medium for cell viability assessment according to the instructions provided with the CCK-8 kit.”

In the next assay the target is T1, WEE1 (Homo sapiens, UniProt P30291+Q96SW2).
T1 construct: endogenous in cells; host or cells: hPBMC
Briefly: Western blot degradation of WEE1 in hPBMC. The format is cell-based. An outline of the steps:
(§3)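 hPBMC, compound-treated; SDS-PAGE Western, NC membrane, 1 h RT block. DC50 = conc. at 50% of DMSO band grayscale (curve fit). % remaining = target/internal control band ratio, normalized.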
(In general: In western blotting, separated proteins are transferred to a membrane and probed.)

The target in the next assay is T2, IKZF1 (Homo sapiens, UniProt Q13422+Q96SW2).
T2 construct: endogenous in cells; host or cells: hPBMC
Briefly: Western blot degradation of IKZF1 in hPBMC. It is filed as cell-based. Summed up: as §3

In the next assay the target is T3, IKZF2 (Homo sapiens, UniProt Q96SW2+Q9UKS7).
T3 construct: endogenous in cells; host or cells: hPBMC
Briefly: Western blot degradation of IKZF2 in hPBMC. The format is cell-based. Summed up: as §3

The target in a further assay is T4, IKZF3 (Homo sapiens, UniProt Q96SW2+Q9UKT9).
T4 construct: endogenous in cells; host or cells: hPBMC
The assay can be described thus: Western blot degradation of IKZF3 in hPBMC. It is filed as cell-based. An outline of the steps:
as §3

The next assay concerns the target T5, CK1a (Homo sapiens, UniProt P48729+Q96SW2).
T5 construct: endogenous in cells; host or cells: hPBMC
Briefly: Western blot degradation of CK1a in hPBMC. It is filed as cell-based. An outline of the steps:
as §3

A further assay addresses T6, GSPT1 (Homo sapiens, UniProt P15170+Q96SW2).
T6 construct: endogenous in cells; host or cells: hPBMC
Briefly: Western blot degradation of GSPT1 in hPBMC. The format is cell-based. Summed up:
as §3

A further assay relates to MM.1R. Briefly: CCK-8 tumor cell proliferation IC50, MM.1R. The following applies: Table B4, designed based on the CDK4/6 inhibitors, 72 hours, read-out: Inhibitory activity (IC50, nM) on tumor cell proliferation: MM.1R. As for the experimental part: as §1
as §2, with “dilutions).” for “dilutions). After the cells were treated with the compounds of the present disclosure for a period of time, the cell viability detection reagent was added to the culture medium for cell viability assessment according to the instructions provided with the CCK-8 kit.”

For the next assay, the system named is CCRF-CEM. The assay can be described thus: CCK-8 tumor cell proliferation IC50, CCRF-CEM. The following applies: Homo sapiens, CCRF-CEM cells, compounds designed based on the IRAK4 inhibitors, read-out: Inhibitory activity (IC50, nM) on tumor cell proliferation, CCRF-CEM. As for the experimental part:
as §1
as §2, with “dilutions).” for “dilutions). After the cells were treated with the compounds of the present disclosure for a period of time, the cell viability detection reagent was added to the culture medium for cell viability assessment according to the instructions provided with the CCK-8 kit.”

The test system of another assay is SR. The assay can be described thus: CCK-8 tumor cell proliferation IC50, SR. The following applies: Homo sapiens, SR cells, compounds designed based on the IRAK4 inhibitors, read-out: Inhibitory activity (IC50, nM) on tumor cell proliferation, SR. The protocol:
as §1
as §2, with “dilutions).” for “dilutions). After the cells were treated with the compounds of the present disclosure for a period of time, the cell viability detection reagent was added to the culture medium for cell viability assessment according to the instructions provided with the CCK-8 kit.”

Another assay concerns MV-4-11. Briefly: CCK-8 tumor cell proliferation IC50, MV-4-11. The following applies: Homo sapiens, MV4-11, MV-4-11 cells, compounds designed based on the IRAK4 inhibitors, read-out: Inhibitory activity (IC50, nM) on tumor cell proliferation, MV-4-11. The protocol: as §1
as §2, with “dilutions).” for “dilutions). After the cells were treated with the compounds of the present disclosure for a period of time, the cell viability detection reagent was added to the culture medium for cell viability assessment according to the instructions provided with the CCK-8 kit.”

The subject of a further assay is LNcap. The assay can be described thus: CCK-8 tumor cell proliferation IC50, LNcap. The following applies: Homo sapiens, Lncap cells, compounds designed based on the IRAK4 inhibitors, read-out: Inhibitory activity (IC50, nM) on tumor cell proliferation, Lncap. The protocol: as §1
as §2, with “dilutions).” for “dilutions). After the cells were treated with the compounds of the present disclosure for a period of time, the cell viability detection reagent was added to the culture medium for cell viability assessment according to the instructions provided with the CCK-8 kit.”

The test system of the next assay is Jurkat. The assay can be described thus: CCK-8 tumor cell proliferation IC50, Jurkat. The following applies: Homo sapiens, Jurkat cells, compounds designed based on the IRAK4 inhibitors, read-out: Inhibitory activity (IC50, nM) on tumor cell proliferation, Jurkat. The protocol:
as §1
as §2, with “dilutions).” for “dilutions). After the cells were treated with the compounds of the present disclosure for a period of time, the cell viability detection reagent was added to the culture medium for cell viability assessment according to the instructions provided with the CCK-8 kit.”

Where two headings read alike, the source gives them in different places.

T4 sequence (Q9UKT9 whole entry): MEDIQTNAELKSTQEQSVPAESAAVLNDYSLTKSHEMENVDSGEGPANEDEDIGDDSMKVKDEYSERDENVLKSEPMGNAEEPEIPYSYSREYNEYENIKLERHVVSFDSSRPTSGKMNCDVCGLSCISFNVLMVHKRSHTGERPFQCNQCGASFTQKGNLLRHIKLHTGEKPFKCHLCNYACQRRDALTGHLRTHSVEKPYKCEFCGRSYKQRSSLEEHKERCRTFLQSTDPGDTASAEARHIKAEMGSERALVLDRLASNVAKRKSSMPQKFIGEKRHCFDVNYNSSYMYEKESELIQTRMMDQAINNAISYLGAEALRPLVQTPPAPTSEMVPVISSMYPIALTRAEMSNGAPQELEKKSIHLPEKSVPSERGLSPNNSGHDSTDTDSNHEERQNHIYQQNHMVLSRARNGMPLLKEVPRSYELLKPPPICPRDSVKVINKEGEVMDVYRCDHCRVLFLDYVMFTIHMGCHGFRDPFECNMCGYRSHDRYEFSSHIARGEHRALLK
T4 sequence (Q96SW2 whole entry): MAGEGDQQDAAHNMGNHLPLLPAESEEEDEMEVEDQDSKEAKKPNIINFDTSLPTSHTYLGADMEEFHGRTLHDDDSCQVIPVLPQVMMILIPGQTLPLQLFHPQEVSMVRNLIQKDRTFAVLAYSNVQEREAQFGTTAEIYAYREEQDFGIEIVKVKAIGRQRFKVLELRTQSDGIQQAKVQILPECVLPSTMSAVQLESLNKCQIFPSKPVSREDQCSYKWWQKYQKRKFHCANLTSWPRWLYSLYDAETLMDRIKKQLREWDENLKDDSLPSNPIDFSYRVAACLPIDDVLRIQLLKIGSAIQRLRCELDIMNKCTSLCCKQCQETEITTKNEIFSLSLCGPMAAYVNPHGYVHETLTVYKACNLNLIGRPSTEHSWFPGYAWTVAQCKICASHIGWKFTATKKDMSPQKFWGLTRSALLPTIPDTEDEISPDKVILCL
T4 sequence (Q16531 whole entry partner): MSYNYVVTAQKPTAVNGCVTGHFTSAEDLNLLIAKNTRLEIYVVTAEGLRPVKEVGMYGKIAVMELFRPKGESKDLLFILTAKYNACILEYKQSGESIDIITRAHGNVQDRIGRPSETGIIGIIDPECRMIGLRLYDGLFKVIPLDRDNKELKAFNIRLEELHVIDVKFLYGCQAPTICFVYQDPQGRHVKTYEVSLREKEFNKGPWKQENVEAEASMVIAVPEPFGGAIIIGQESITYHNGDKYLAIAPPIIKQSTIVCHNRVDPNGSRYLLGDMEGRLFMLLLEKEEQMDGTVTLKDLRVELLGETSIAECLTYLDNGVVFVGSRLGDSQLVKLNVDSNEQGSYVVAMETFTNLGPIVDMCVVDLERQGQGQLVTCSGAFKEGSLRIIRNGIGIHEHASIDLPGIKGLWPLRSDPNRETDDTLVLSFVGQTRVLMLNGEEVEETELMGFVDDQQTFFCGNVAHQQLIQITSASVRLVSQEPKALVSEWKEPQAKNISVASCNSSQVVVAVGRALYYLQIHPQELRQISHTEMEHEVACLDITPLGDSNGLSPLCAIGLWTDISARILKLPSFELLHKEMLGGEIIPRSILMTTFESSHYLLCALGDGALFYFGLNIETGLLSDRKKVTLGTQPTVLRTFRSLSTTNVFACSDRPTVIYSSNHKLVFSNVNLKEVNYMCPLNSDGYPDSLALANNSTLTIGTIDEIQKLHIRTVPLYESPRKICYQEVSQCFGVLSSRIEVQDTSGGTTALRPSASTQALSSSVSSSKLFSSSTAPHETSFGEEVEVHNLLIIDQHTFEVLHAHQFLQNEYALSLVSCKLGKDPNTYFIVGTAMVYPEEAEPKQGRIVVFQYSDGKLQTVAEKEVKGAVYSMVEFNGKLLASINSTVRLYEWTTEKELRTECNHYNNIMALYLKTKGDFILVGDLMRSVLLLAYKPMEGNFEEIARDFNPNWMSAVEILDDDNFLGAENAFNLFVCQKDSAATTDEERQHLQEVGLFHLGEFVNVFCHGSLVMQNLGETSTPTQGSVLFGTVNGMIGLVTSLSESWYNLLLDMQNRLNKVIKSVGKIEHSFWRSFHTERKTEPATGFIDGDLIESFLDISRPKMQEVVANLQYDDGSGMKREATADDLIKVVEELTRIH
T2 sequence (Q13422 whole entry): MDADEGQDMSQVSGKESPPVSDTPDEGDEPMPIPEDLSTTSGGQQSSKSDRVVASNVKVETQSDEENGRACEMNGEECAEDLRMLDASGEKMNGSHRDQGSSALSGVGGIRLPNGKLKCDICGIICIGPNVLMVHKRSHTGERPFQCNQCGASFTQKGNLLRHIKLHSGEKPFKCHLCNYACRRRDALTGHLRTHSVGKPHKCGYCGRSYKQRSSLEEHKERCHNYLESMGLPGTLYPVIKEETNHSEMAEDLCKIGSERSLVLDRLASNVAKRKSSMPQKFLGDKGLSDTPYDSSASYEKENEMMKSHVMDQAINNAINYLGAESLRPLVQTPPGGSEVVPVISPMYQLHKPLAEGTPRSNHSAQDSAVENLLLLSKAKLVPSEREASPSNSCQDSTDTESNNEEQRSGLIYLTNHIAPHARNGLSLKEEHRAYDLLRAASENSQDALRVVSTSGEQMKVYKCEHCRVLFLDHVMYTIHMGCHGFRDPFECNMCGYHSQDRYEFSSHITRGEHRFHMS
T2 sequence (Q96SW2 whole entry): as the sequence (Q96SW2 whole entry) above
T2 sequence (Q16531 whole entry partner): as the sequence (Q16531 whole entry partner) above
T1 sequence (P30291 whole entry): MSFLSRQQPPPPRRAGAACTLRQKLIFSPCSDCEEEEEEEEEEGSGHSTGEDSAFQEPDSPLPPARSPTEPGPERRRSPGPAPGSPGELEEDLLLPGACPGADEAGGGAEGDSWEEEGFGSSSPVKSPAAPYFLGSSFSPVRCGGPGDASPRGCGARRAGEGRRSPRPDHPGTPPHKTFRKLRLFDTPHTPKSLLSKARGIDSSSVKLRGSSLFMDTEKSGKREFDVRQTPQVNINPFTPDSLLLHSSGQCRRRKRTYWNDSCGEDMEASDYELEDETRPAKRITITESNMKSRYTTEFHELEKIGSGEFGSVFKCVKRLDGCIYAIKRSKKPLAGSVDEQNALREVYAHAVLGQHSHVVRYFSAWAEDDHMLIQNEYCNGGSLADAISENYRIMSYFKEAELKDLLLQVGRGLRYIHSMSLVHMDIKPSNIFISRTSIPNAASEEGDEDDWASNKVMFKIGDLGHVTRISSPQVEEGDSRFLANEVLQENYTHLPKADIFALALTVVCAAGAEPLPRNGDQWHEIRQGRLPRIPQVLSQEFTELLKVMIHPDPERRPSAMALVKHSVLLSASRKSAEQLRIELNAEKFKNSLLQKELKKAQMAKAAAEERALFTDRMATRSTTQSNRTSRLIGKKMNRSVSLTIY
T1 sequence (Q96SW2 whole entry): as the sequence (Q96SW2 whole entry) above
T1 sequence (Q16531 whole entry partner): as the sequence (Q16531 whole entry partner) above
T5 sequence (P48729 whole entry): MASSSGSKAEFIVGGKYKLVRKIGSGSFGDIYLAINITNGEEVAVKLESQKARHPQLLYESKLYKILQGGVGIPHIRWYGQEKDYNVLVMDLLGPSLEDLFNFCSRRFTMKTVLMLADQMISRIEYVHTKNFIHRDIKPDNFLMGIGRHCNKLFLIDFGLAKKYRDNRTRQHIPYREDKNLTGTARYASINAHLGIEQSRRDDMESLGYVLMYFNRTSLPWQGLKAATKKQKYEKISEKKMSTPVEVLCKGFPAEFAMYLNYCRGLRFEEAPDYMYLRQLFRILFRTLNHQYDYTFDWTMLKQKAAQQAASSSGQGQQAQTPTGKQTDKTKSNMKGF
T5 sequence (Q96SW2 whole entry): as the sequence (Q96SW2 whole entry) above
T5 sequence (Q16531 whole entry partner): as the sequence (Q16531 whole entry partner) above
T3 sequence (Q9UKS7 whole entry): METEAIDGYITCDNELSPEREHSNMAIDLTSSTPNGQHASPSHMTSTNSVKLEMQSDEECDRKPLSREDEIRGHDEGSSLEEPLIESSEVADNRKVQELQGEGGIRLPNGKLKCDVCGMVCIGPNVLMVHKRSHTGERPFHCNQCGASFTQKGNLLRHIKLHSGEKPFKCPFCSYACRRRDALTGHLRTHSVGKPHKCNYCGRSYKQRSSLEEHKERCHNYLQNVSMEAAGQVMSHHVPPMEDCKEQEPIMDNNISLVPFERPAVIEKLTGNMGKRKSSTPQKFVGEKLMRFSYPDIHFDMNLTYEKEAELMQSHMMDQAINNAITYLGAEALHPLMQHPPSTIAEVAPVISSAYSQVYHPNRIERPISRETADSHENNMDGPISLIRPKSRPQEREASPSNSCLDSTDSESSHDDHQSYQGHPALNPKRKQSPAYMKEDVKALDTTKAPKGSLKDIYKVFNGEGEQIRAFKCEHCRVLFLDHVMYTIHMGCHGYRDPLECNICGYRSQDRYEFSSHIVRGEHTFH
T3 sequence (Q96SW2 whole entry): as the sequence (Q96SW2 whole entry) above
T3 sequence (Q16531 whole entry partner): as the sequence (Q16531 whole entry partner) above

For the compound `O=C1CCC(Nc2cccc(CN3CCN(Cc4ccc5c(c4)nc(NC(=O)c4cccc(C(F)(F)F)c4)n5C4CCC(CO)CC4)CC3)c2)C(=O)N1` (centres unmarked) [GT-04976, N-(5-((4-(3-((2,6-dioxopiperidin-3-yl)amino)benzyl)piperazin-1-yl)methyl)-1-((1s,4s)-4-(hydroxymethyl)cyclohexyl)-1H-benzo[d]imidazol-2-yl)-3-(trifluoromethyl)benzamide], the IC50 in the assay on MM.1S (MM1S) lay within 100 to 500 nM.
For the compound `O=C1CCC(c2ccc(CN3CCN(c4ccc5c(c4)nc(NC(=O)c4cccc(C(F)(F)F)c4)n5C4CCC(CO)CC4)CC3)cc2)C(=O)N1` (centres unmarked) [GT-04981, N-(5-(4-(4-(2,6-dioxopiperidin-3-yl)benzyl)piperazin-1-yl)-1-((1s,4s)-4-(hydroxymethyl)cyclohexyl)-1H-benzo[d]imidazol-2-yl)-3-(trifluoromethyl)benzamide], the IC50 lay within 100 to 500 nM in the assay with MM.1S (MM1S), 500 to 1000 nM in assay [1] and 500 to 1000 nM in the assay on H1299 (H1299 cells).
Regarding `O=C1CCN(c2ccc(CN3CCN(c4ccc5c(c4)nc(NC(=O)c4cccc(C(F)(F)F)c4)n5[C@H]4CC[C@@H](CO)CC4)CC3)cc2)C(=O)N1` [GT-04982, N-(5-(4-(4-(2,4-dioxotetrahydropyrimidin-1(2H)-yl)benzyl)piperazin-1-yl)-1-((1s,4s)-4-(hydroxymethyl)cyclohexyl)-1H-benzo[d]imidazol-2-yl)-3-(trifluoromethyl)benzamide], the IC50 with MM.1S (MM1S) fell in the range of 50 to 100 nM; in assay [1], 100 to 500 nM; with H1299 (H1299 cells) it was 100 to 500 nM.
`O=C1CCN(c2ccc(CN3CCN(c4ccc5c(c4)nc(NC(=O)c4cccc(C(F)(F)F)c4)n5[C@H]4CC[C@@H](CO)CC4)CC3)nc2)C(=O)N1` [GT-04986, N-(5-(4-((5-(2,4-dioxotetrahydropyrimidin-1(2H)-yl)pyridin-2-yl)methyl)piperazin-1-yl)-1-((1s,4s)-4-(hydroxymethyl)cyclohexyl)-1H-benzo[d]imidazol-2-yl)-3-(trifluoromethyl)benzamide]: the IC50 (in the assay with MM.1S (MM1S); in [1]; with H1299 (H1299 cells)) was 100 to 500 nM throughout.
On to `O=C1CCC(Nc2cccc(CN3CCC(N4CCN(c5ccc6c(c5)nc(NC(=O)c5cccc(C(F)(F)F)c5)n6[C@H]5CC[C@@H](CO)CC5)CC4)CC3)c2)C(=O)N1` (some centres unmarked) [GT-05023, N-(5-(4-(1-(3-((2,6-dioxopiperidin-3-yl)amino)benzyl)piperidin-4-yl)piperazin-1-yl)-1-((1s,4s)-4-(hydroxymethyl)cyclohexyl)-1H-benzo[d]imidazol-2-yl)-3-(trifluoromethyl)benzamide], for which the IC50 in the assay on MM.1S (MM1S) fell in the range of 500 to 1000 nM.
In the case of `O=C1CCN(c2ccc(CN3C4CCC3CN(c3ccc(-c5cc(F)c6c(c5)C(=O)N(C(C(=O)Nc5nccs5)c5ncn7c5CCC7)C6)cc3)C4)cn2)C(=O)N1` (centres unmarked) [GT-06256, 2-(6,7-dihydro-5H-pyrrolo[1,2-c]imidazol-1-yl)-2-(6-(4-(8-((6-(2,4-dioxotetrahydropyrimidin-1(2H)-yl)pyridin-3-yl)methyl)-3,8-diazabicyclo[3.2.1]octan-3-yl)phenyl)-4-fluoro-1-oxoisoindolin-2-yl)-N-(thiazol-2-yl)acetamide], the IC50 with NCI-H1975 (H1975) was in the range of 1 to 10 nM.
Still for that read-out and setting: to `O=C1CCC(Nc2cccc(CN3C4CCC3CN(c3ccc(-c5cc(F)c6c(c5)C(=O)N(C(C(=O)Nc5nccs5)c5ncn7c5CCC7)C6)cc3)C4)c2)C(=O)N1` (centres unmarked) [GT-06257, 2-(6,7-dihydro-5H-pyrrolo[1,2-c]imidazol-1-yl)-2-(6-(4-(8-(3-((2,6-dioxopiperidin-3-yl)amino)benzyl)-3,8-diazabicyclo[3.2.1]octan-3-yl)phenyl)-4-fluoro-1-oxoisoindolin-2-yl)-N-(thiazol-2-yl)acetamide] belongs 1 to 10 nM.
As to `O=C1CCC(Nc2ncc(CO)cn2)C(=O)N1` (centres unmarked) [GT-07809, 3-((5-(hydroxymethyl)pyrimidin-2-yl)amino)piperidine-2,6-dione], the “Degradation of substrate protein WEE1 (substrate protein remaining %)” value at WEE1 is “A (A is defined as 0% ≤ substrate protein remaining % ≤ 80%)”. Also, on IKZF1, the “Degradation of substrate protein IKZF1 (substrate protein remaining %)” value is “A (A is defined as 0% ≤ substrate protein remaining % ≤ 80%)”. The “Degradation of substrate protein IKZF2 (substrate protein remaining %)” value at IKZF2 is reported as “A (A is defined as 0% ≤ substrate protein remaining % ≤ 80%)”. For the same compound, on IKZF3, the “Degradation of substrate protein IKZF3 (substrate protein remaining %)” value is reported as “A (A is defined as 0% ≤ substrate protein remaining % ≤ 80%)”. Also, the “Degradation of substrate protein CK1a (substrate protein remaining %)” value on CK1a was “B (B is defined as substrate protein remaining % > 80%)”. Moreover, the “Degradation of substrate protein GSPT1 (substrate protein remaining %)” value at GSPT1 was “B (B is defined as substrate protein remaining % > 80%)”.
As to `CC[C@@H]1[C@H](F)C(=O)N[C@@H]1COc1nccc2cc(C(N)=O)c(OC)cc12` [PF06650833, reference compound], the values for the IC50 (with MM.1S (MM1S); in assay [1]; in the assay on H1299 (H1299 cells)) were more than 10000 nM, 5000 to 10000 nM and 5000 to 10000 nM, respectively.
For the compound `CCN1CCN(Cc2ccc(Nc3ncc(F)c(-c4cc(F)c5nc(C)n(C(C)C)c5c4)n3)nc2)CC1` [abemaciclib], in the assay on MM.1R, the IC50 is 1000 to 5000 nM.
In the case of `Cc1cc(-c2nc(C(=O)Nc3cc4oc(N5CCOCC5)nc4nc3N3CC[C@@H](O)C3)co2)ccn1` [emavusertib], the IC50 in the assay with CCRF-CEM was more than 10000 nM; with SR it was more than 10000 nM; in the assay with MV-4-11, 50 to 100 nM; in the assay with LNcap it was more than 10000 nM; with Jurkat, more than 10000 nM; in the assay on H1299 (Homo sapiens, NCI-H1299, H1299 cells), more than 10000 nM.

Values taken from patent publication US20260274829A1, “NEW E3 UBIQUITIN LIGASE LIGAND, PROTEIN DEGRADATION AGENT AND USE THEREOF” (GLUETACS THERAPEUTICS (SHANGHAI) CO., LTD., priority 2023, published 2026).
